Reference: patent US20230072860A1, “ISOXAZOLINE OXIME FORMATE COMPOUND, PREPARATION METHOD THEREFOR, HERBICIDAL COMPOSITION AND USE THEREOF” (QINGDAO KINGAGROOT CHEMICAL COMPOUND CO., LTD., priority 2020, published 2023)

Columns and labels:
Assay in all cases: Experiment on weeding effect in post-emergence stage
Type in all cases: in vivo
Settings in all cases: dose 15 g a.i./ha, fresh weight control rate level
[1] = system: Abutilon theophrasti
Method in brief: (§1)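 Post-emergence spray-tower treatment at 2-3 leaf stage, doses 500, 250, 125, 60, 15 g a.i./ha. Formulation: acetone solution plus Tween 80, methyl oleate EC synergist (1.5 liter/ha), diluted in water. Greenhouse pots; weed control counted 3 weeks post-application, mean of three repeats.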

[2] = system: Amaranthus retroflexus
Method in brief: as §1

[3] = system: Digitaria sanguinalis
Method in brief: as §1

[4] = system: Echinochloa crusgalli
Method in brief: as §1

[5] = system: Eleusine indica
Method in brief: as §1

[6] = system: Galium aparine
Method in brief: as §1

[7] = system: Leptochloa chinensis
Method in brief: as §1

[8] = system: Setaria viridis
Method in brief: as §1

[9] = system: Veronica didyma Tenore
Method in brief: as §1

SMILES | weeding effect in post-emergence stage, Abutilon theophrasti (level) [1] | weeding effect in post-emergence stage, Amaranthus retroflexus (level) [2] | weeding effect in post-emergence stage, Digitaria sanguinalis (level) [3] | weeding effect in post-emergence stage, Echinochloa crusgalli (level) [4] | weeding effect in post-emergence stage, Eleusine indica (level) [5] | weeding effect in post-emergence stage, Galium aparine (level) [6] | weeding effect in post-emergence stage, Leptochloa chinensis (level) [7] | weeding effect in post-emergence stage, Setaria viridis (level) [8] | weeding effect in post-emergence stage, Veronica didyma Tenore (level) [9]
CCC(CC)=NOC(=O)C1(C)CC(c2cc(-n3c(=O)n(C)c(=S)n(C)c3=S)c(F)cc2Cl)=NO1 (stereo not drawn) [Compound 60] | 5 (Level 5: growth control rate is above 85%) | 5 (Level 5: growth control rate is above 85%) | 5 (Level 5: growth control rate is above 85%) | 5 (Level 5: growth control rate is above 85%) | 5 (Level 5: growth control rate is above 85%) | 5 (Level 5: growth control rate is above 85%) | 5 (Level 5: growth control rate is above 85%) | 5 (Level 5: growth control rate is above 85%) | 5 (Level 5: growth control rate is above 85%)
C/C(=N/OC(=O)C1(C)CC(c2cc(-n3c(=O)n(C)c(=S)n(C)c3=O)c(F)cc2Cl)=NO1)c1ccccc1 (stereo not drawn) [Compound 124] | 5 (Level 5: growth control rate is above 85%) | 5 (Level 5: growth control rate is above 85%) | 5 (Level 5: growth control rate is above 85%) | 5 (Level 5: growth control rate is above 85%) | 5 (Level 5: growth control rate is above 85%) | 5 (Level 5: growth control rate is above 85%) | 5 (Level 5: growth control rate is above 85%) | 5 (Level 5: growth control rate is above 85%) | 5 (Level 5: growth control rate is above 85%)
Cn1c(=S)n(C)c(=O)n(-c2cc(C3=NOC(C)(C(=O)ON=Cc4ccccc4)C3)c(Cl)cc2F)c1=O (mixture of isomers) [Compound 90] | 5 (Level 5: growth control rate is above 85%) | 5 (Level 5: growth control rate is above 85%) | 5 (Level 5: growth control rate is above 85%) | 5 (Level 5: growth control rate is above 85%) | 5 (Level 5: growth control rate is above 85%) | 5 (Level 5: growth control rate is above 85%) | 5 (Level 5: growth control rate is above 85%) | 5 (Level 5: growth control rate is above 85%) | 5 (Level 5: growth control rate is above 85%)
Cn1c(=S)n(C)c(=S)n(-c2cc(C3=NOC(C)(C(=O)O/N=C/c4ccccc4)C3)c(Cl)cc2F)c1=O (stereo not drawn) [Compound 69] | 5 (Level 5: growth control rate is above 85%) | 5 (Level 5: growth control rate is above 85%) | 5 (Level 5: growth control rate is above 85%) | 5 (Level 5: growth control rate is above 85%) | 5 (Level 5: growth control rate is above 85%) | 5 (Level 5: growth control rate is above 85%) | 5 (Level 5: growth control rate is above 85%) | 5 (Level 5: growth control rate is above 85%) | 5 (Level 5: growth control rate is above 85%)
COCC(C)=NOC(=O)C1(C)CC(c2cc(-n3c(=O)n(C)c(=S)n(C)c3=O)c(F)cc2Cl)=NO1 (mixture of isomers) [Compound 121] | 5 (Level 5: growth control rate is above 85%) | 5 (Level 5: growth control rate is above 85%) | 5 (Level 5: growth control rate is above 85%) | 5 (Level 5: growth control rate is above 85%) | 5 (Level 5: growth control rate is above 85%) | 5 (Level 5: growth control rate is above 85%) | 5 (Level 5: growth control rate is above 85%) | 5 (Level 5: growth control rate is above 85%) | 5 (Level 5: growth control rate is above 85%)
CC(C)=NOC(=O)C1(C)CC(c2cc(-n3c(=O)n(C)c(=S)n(C)c3=S)c(F)cc2Cl)=NO1 (stereo not drawn) [Compound 56] | 5 (Level 5: growth control rate is above 85%) | 5 (Level 5: growth control rate is above 85%) | 5 (Level 5: growth control rate is above 85%) | 5 (Level 5: growth control rate is above 85%) | 5 (Level 5: growth control rate is above 85%) | 5 (Level 5: growth control rate is above 85%) | 5 (Level 5: growth control rate is above 85%) | 5 (Level 5: growth control rate is above 85%) | 5 (Level 5: growth control rate is above 85%)
CCC(C)=NOC(=O)C1(C)CC(c2cc(-n3c(=O)n(C)c(=S)n(C)c3=O)c(F)cc2Cl)=NO1 (mixture of isomers) [Compound 79] | 5 (Level 5: growth control rate is above 85%) | 5 (Level 5: growth control rate is above 85%) | 5 (Level 5: growth control rate is above 85%) | 5 (Level 5: growth control rate is above 85%) | 5 (Level 5: growth control rate is above 85%) | 5 (Level 5: growth control rate is above 85%) | 5 (Level 5: growth control rate is above 85%) | 5 (Level 5: growth control rate is above 85%) | 5 (Level 5: growth control rate is above 85%)
